Columns and labels:
[1] = system: 4EBP1 phosphorylation (Thr37, Thr46 and Ser65); assay: 4E-BP1 phosphorylation (mTORC1 sites), immunoblot of treated U2OS cells; assay type: cell-based; conditions: AZD8055 0.1 μM
Experimental: (§1) U20S cell line was kindly provided by John Rouse (MRC Protein Phosphorylation and Ubiquitylation Unit, University of Dundee, Dundee, U.K.). Cells were cultured in DMEM (Dulbecco's modified Eagle's medium) supplemented with 10% (v/v) FBS, 2 mM L-glutamine, 100 U/ml penicillin and 0.1 mg/ml streptomycin. cDNA for mouse Hrs (residues 147–223 ×2 joined by a linker) were cloned into a pBABE.puro vector. […] . The virus was harvested 48 h after transfection and applied to U20S cells in the presence of 10 μg/ml polybrene. Cells were selected with 10 μg/ml puromycin before single cell colony selection to identify low expression GFP–FYVEHrs clones. U2OS Flp/In cell line was kindly provided by John Rouse. Cells were cultured in McCoy medium supplemented with 10% (v/v) FBS, 2 mM L-glutamine, 100 U/ml penicillin and 0.1 mg/ml streptomycin. Stable cell lines expressing doxycycline-inducible proteins were generated using the Flp-In™ T-REx™ system (Invitrogen). Stable transfected clones were selected using 0.01 mM hygromycin in cell medium. Protein expression was induced by adding 0.01 mg/ml doxycycline in the medium for 24 h prior to cell lysis. Inhibitor treatment was carried out as described in the Figure legends. The cells were lysed in buffer containing 50 mM Tris/HCl (pH 7.5), 150 mM NaCl, 1 mM EDTA, 1 mM EGTA, 1 mM sodium orthovanadate, 10 mM sodium glycerophosphate, 50 mM sodium fluoride, 10 mM sodium pyrophosphate, 0.27 M sucrose, 0.1% 2-mercaptoethanol, 1 mM benzamidine and 0.1 mM PMSF. Lysates were clarified by centrifugation at 16000 g for 10 min at 4°C. Protein concentration was calculated using Bradford assay (Thermo Scientific). Immunoblotting and immunoprecipitation were performed using standard procedures. The signal was developed using the ECL Western Blotting Detection kit (GE Healthcare) on Hyperfilm ECL film (GE Healthcare). […]

[2] = system: Akt (Thr308, Ser473) and Akt substrate PRAS40 (Thr246) phosphorylation; assay: Akt and PRAS40 phosphorylation, immunoblot of treated U2OS cells; assay type: cell-based; conditions: 1 h
Experimental: U20S cell line was kindly provided by John Rouse (MRC Protein Phosphorylation and Ubiquitylation Unit, University of Dundee, Dundee, U.K.). Cells were cultured in DMEM (Dulbecco's modified Eagle's medium) supplemented with 10% (v/v) FBS, 2 mM L-glutamine, 100 U/ml penicillin and 0.1 mg/ml streptomycin. cDNA for mouse Hrs (residues 147–223 ×2 joined by a linker) were cloned into a pBABE.puro vector. […] . The virus was harvested 48 h after transfection and applied to U20S cells in the presence of 10 μg/ml polybrene. Cells were selected with 10 μg/ml puromycin before single cell colony selection to identify low expression GFP–FYVEHrs clones. U2OS Flp/In cell line was kindly provided by John Rouse. Cells were cultured in McCoy medium supplemented with 10% (v/v) FBS, 2 mM L-glutamine, 100 U/ml penicillin and 0.1 mg/ml streptomycin. Stable cell lines expressing doxycycline-inducible proteins were generated using the Flp-In™ T-REx™ system (Invitrogen). Stable transfected clones were selected using 0.01 mM hygromycin in cell medium. Protein expression was induced by adding 0.01 mg/ml doxycycline in the medium for 24 h prior to cell lysis. Inhibitor treatment was carried out as described in the Figure legends. The cells were lysed in buffer containing 50 mM Tris/HCl (pH 7.5), 150 mM NaCl, 1 mM EDTA, 1 mM EGTA, 1 mM sodium orthovanadate, 10 mM sodium glycerophosphate, 50 mM sodium fluoride, 10 mM sodium pyrophosphate, 0.27 M sucrose, 0.1% 2-mercaptoethanol, 1 mM benzamidine and 0.1 mM PMSF. Lysates were clarified by centrifugation at 16000 g for 10 min at 4°C. Protein concentration was calculated using Bradford assay (Thermo Scientific). Immunoblotting and immunoprecipitation were performed using standard procedures. The signal was developed using the ECL Western Blotting Detection kit (GE Healthcare) on Hyperfilm ECL film (GE Healthcare).
The following antibodies were raised in sheep, by the DSTT (Division of Signal Transduction Therapy) at the University of Dundee, and affinity-purified against the indicated antigens: anti-Akt1 (S695B, third bleed; raised against residues 466–480 of human Akt1: […]), anti-PRAS40 (proline-rich Akt substrate 40 kDa) (S115B, first bleed; raised against residues 238–256 of human PRAS40: […]), anti-(phospho-PRAS40 Thr^246) (S114B, second bleed; raised against residues 240–251 of human PRAS40: CRPRLNTpSDFQK), anti-NDRG1 (N-Myc downstream-regulated gene-1) (S276B third bleed; raised against full-length human NDRG1) and anti-SGK3 [S037D second bleed; raised against human SGK3 PX domain comprising residues 1–130 of SGK3]. […] Anti-(phospho-SGK hydrophobic motif [Ser^486 in SGK3]) antibody (sc16745) was from Santa Cruz Biotechnology and total SGK1/2 antibody was from Sigma (5188) as was the mouse anti-FLAG antibody. Secondary antibodies coupled to HRP (horseradish peroxidase) were obtained from Thermo Scientific.
. […] (B and C) As in (A) except cells were treated with the indicated doses of the BKM120 class I PI3K inhibitor.

SGK3 = SGK3 kinase activity after immunoprecipitation from inhibitor-treated U2OS cells (Crosstide assay); assay type: cell-based
Vps34 = conditions: cited from earlier work
[3] = system: PtdIns(3,4,5)P3/PtdIns(3,4)P2 (GFP–PHAkt1 probe) in U2OS cells; assay: IGF1-induced plasma membrane recruitment of GFP–PHAkt1 in U2OS cells; conditions: 1 μM VPS34-IN1 or 0.5 μM GDC-0941 for 1 h, IGF 100 ng/ml 15 min
Experimental: (§2) Cells were cultured on glass coverslips and processed for immunocytochemistry using standard protocols. […] For experiments quantifying co-localization of SGK3–GFP with EEA1 (early endosome antigen 1) and localization GFP–FYVEHrs in response to inhibitor treatment, cells were permeabilized via one freeze–thaw cycle in liquid nitrogen and subsequently fixed. The following primary antibodies were used: rabbit anti-EEA1 (1:500 dilution; Life Technologies) and mouse anti-GFP (1:1000 dilution; Life Technologies) antibodies. […] Imaging was conducted using a Nikon Eclipse Ti-S microscope (×40 objective) or a Zeiss LSM710 laser scanning confocal microscope [×63 Plan-Apochromat oil immersion objective; 1.40 NA (numerical aperture)] as described in the Figure legends. Time-lapse microscopy was carried out on the same microscope using a heated incubator, heated stage plate and CO2 controller (Pecon) to maintain the cells.
(§3) Time-lapse microscopy was performed on Zeiss 710 microscope using ×63 objective. […] The cells were fixed with 4% paraformaldehyde and images were taken using Zeiss 710 microscope at ×63 objective.

[4] = system: NDRG1 phosphorylation at Thr346; assay: NDRG1 Thr346 phosphorylation, immunoblot of treated U2OS cells; assay type: cell-based; conditions: 1 h
Experimental: as §1, with “The cells were lysed in buffer containing 50 mM Tris/HCl (pH 7.5), 150 mM NaCl, 1 mM EDTA, 1 mM EGTA, 1 mM sodium orthovanadate, 10 mM sodium glycerophosphate, 50 mM sodium fluoride, 10 mM sodium pyrophosphate, 0.27 M sucrose, 0.1% 2-mercaptoethanol, 1 mM benzamidine and 0.1 mM PMSF. Lysates were clarified by centrifugation at 16000 g for 10 min at 4°C.” left out, “Scientific).” for “Scientific). Immunoblotting and immunoprecipitation were performed using standard procedures. The signal was developed using the ECL Western Blotting Detection kit (GE Healthcare) on Hyperfilm ECL film (GE Healthcare).”

[5] = system: endosomal PtdIns(3)P (GFP–2×FYVEHrs probe) in U2OS cells; assay: GFP–2×FYVEHrs probe localization, live imaging (time-lapse) in U2OS cells
Experimental: as §2
Images were acquired every 0.5 min up to 60 min. Inhibitors were added after acquiring two images, except for VPS34-IN1 that was added after the first image taken. Post-acquisition, image analysis was conducted with Volocity 6.3 (PerkinElmer).
as §3

[6] = system: SGK3 localization on endosomes in U2OS cells; assay: SGK3–GFP endosomal localization, time-lapse microscopy in U2OS cells
Experimental: as §2
Images were acquired every 0.5 min up to 60 min. […] Post-acquisition, image analysis was conducted with Volocity 6.3 (PerkinElmer).
Images were taken using a Nicon Eclipse Ti-S microscope with ×40 objective (upper panel). […] Pictures were taken with Zeiss 710 microscope using ×100 objective. Mander's correlation coefficient in 112 cells was calculated using the Volocity 6.3 program. […] Time-lapse microscopy was performed on Zeiss 710 microscope using ×63 objective. Representative images are shown and similar results were obtained in two experiments.

[7] = system: SGK3 phosphorylation (Thr320, Ser486); assay: SGK3 T-loop and hydrophobic motif phosphorylation, immunoblot of treated U2OS cells; assay type: cell-based; conditions: for SGK3 T-loop and hydrophobic motif phosphorylation: 1 h, U2OS, immunoblot
Experimental: as §1

[8] = system: Dundee panel of 140 protein kinases; assay: Dundee protein kinase profiling panel; conditions: 1 μM, 140 kinases
Experimental: (C) Protein kinase profiling of the VPS34-IN1 at a single concentration of 1 μM carried out against the Dundee panel of 140 protein kinases at the International Centre for Protein Kinase Profiling. […] Abbreviations and assay conditions used for each kinase are defined at http://www.kinase-screen.mrc.ac.uk.

[9] = system: panel of 19 lipid kinases (includes class I PI3Ks); assay: Dundee lipid kinase profiling panel; assay type: biochemical; conditions: 1 μM
[10] = system: endosomal PtdIns(3)P (GFP–2×FYVEHrs probe) in U2OS cells; assay: GFP–2×FYVEHrs probe localization on endosomes, fixed U2OS cells; assay type: cell-based; conditions: for loss of endosomal localization of GFP–2×FYVEHrs: 1 h
Experimental: U20S cell line was kindly provided by John Rouse (MRC Protein Phosphorylation and Ubiquitylation Unit, University of Dundee, Dundee, U.K.). […] The virus was harvested 48 h after transfection and applied to U20S cells in the presence of 10 μg/ml polybrene. Cells were selected with 10 μg/ml puromycin before single cell colony selection to identify low expression GFP–FYVEHrs clones. U2OS Flp/In cell line was kindly provided by John Rouse. Cells were cultured in McCoy medium supplemented with 10% (v/v) FBS, 2 mM L-glutamine, 100 U/ml penicillin and 0.1 mg/ml streptomycin. Stable cell lines expressing doxycycline-inducible proteins were generated using the Flp-In™ T-REx™ system (Invitrogen). Stable transfected clones were selected using 0.01 mM hygromycin in cell medium. Protein expression was induced by adding 0.01 mg/ml doxycycline in the medium for 24 h prior to cell lysis. Inhibitor treatment was carried out as described in the Figure legends. The cells were lysed in buffer containing 50 mM Tris/HCl (pH 7.5), 150 mM NaCl, 1 mM EDTA, 1 mM EGTA, 1 mM sodium orthovanadate, 10 mM sodium glycerophosphate, 50 mM sodium fluoride, 10 mM sodium pyrophosphate, 0.27 M sucrose, 0.1% 2-mercaptoethanol, 1 mM benzamidine and 0.1 mM PMSF. Lysates were clarified by centrifugation at 16000 g for 10 min at 4°C. Protein concentration was calculated using Bradford assay (Thermo Scientific). Immunoblotting and immunoprecipitation were performed using standard procedures. The signal was developed using the ECL Western Blotting Detection kit (GE Healthcare) on Hyperfilm ECL film (GE Healthcare).
Cells were cultured on glass coverslips and processed for immunocytochemistry using standard protocols. […] For experiments quantifying co-localization of SGK3–GFP with EEA1 (early endosome antigen 1) and localization GFP–FYVEHrs in response to inhibitor treatment, cells were permeabilized via one freeze–thaw cycle in liquid nitrogen and subsequently fixed. […]
The average cell fluorescence was calculated by dividing total fluorescence of each field by the number of the cells in the field. […]

SGK2 = SGK2 kinase activity after immunoprecipitation from inhibitor-treated U2OS cells; conditions: 1 h, U2OS expressing SGK2
Experimental: In vitro kinase activity of SGK3 and SGK2 was assayed by measuring [γ-^32P]ATP incorporation into Crosstide substrate peptide [[sequence]]. SGK3 with a C-terminal FLAG-tag was immunoprecipitated from doxycycline-induced U2OS Flp/In cell lines. Immunoprecipitates were washed in sequence with lysis buffer containing high salt concentration (500 mM NaCl), lysis buffer and buffer A (50 mM Tris/HCl, pH 7.5, and 0.1 mM EGTA). Reactions were carried in 40 μl of total volume containing 0.1 mM [γ-^32P]ATP (400–1000 c.p.m./pmol), 10 mM magnesium acetate and 30 μM Crosstide peptide. Reactions were terminated by adding 10 μl of 0.1 mM EDTA and spotting 40 μl of the reaction mixture on P81 paper which were immediately immersed into 50 mM orthophosphoric acid. Papers were washed several times in 50 mM orthophosphoric acid, rinsed in acetone and air dried. Radioactivity was quantified by Cerenkov counting. One unit of enzyme activity was defined as the amount of enzyme that catalyses incorporation of 1 nmol of [γ-^32P]ATP into the substrate over 1 min.
The cells were lysed and SGK3 immunoprecipitated with anti-FLAG antibody. […]

[11] = system: ProQinase panel of 300 protein kinases; assay: ProQinase protein kinase profiling panel; assay type: biochemical; conditions: 1 μM, 300 kinases
Excerpt: Supplementary Figure Legends
technology. The assay conditions are described at
activity in DMSO control.

**Q.** For `COc1ccc(-c2ccc3c(N4CCOC[C@@H]4C)nc(N4CCOC[C@@H]4C)nc3n2)cc1CO` [AZD8055], which “phosphorylation of 4EBP1 at sites phosphorylated by mTORC1” value (shortened to “phosphorylation of 4EBP1”) [1] is on record?
**A.** marked dephosphorylation

**Q.** Which “Akt phosphorylation at Ser473 and Thr308” value [2] does the source give for `Nc1cc(C(F)(F)F)c(-c2cc(N3CCOCC3)nc(N3CCOCC3)n2)cn1` [BKM120] here?
**A.** near basal levels

**Q.** What about the “phosphorylation of Akt substrate PRAS40 (Thr246)” value (from here on “phosphorylation … (Thr246)”) [2] of the same molecule?
**A.** near basal levels

**Q.** And the “phosphorylation of 4EBP1” value [1]?
**A.** lack of effect

**Q.** What about the inhibition at 0.5 µM (SGK3; Homo sapiens, U2OS, 1 h, read-out: inhibition of SGK3 activity by class I PI3K inhibitor) of the same molecule?
**A.** ~40%

**Q.** And the “inhibition of Vps34” value (Vps34)?
**A.** do not inhibit

**Q.** With `CS(=O)(=O)N1CCN(Cc2cc3nc(-c4cccc5[nH]ncc45)nc(N4CCOCC4)c3s2)CC1` [GDC-0941, 2-(1H-indazol-4-yl)-6-(4-methanesulfonyl-piperazin-1-ylmethyl)-4-morpholin-4-yl-t hieno[3,2-d]pyrimidine, reference compound] as the molecule, how does the “Akt phosphorylation at Ser473 and Thr308” value [2] read?
**A.** near basal levels

**Q.** What about the “phosphorylation … (Thr246)” value [2] of the same molecule?
**A.** near basal levels

**Q.** What about the “phosphorylation of 4EBP1” value [1] of the same molecule?
**A.** lack of effect

**Q.** What about the “effect on IGF1-induced plasma membrane recruitment of GFP–PHAkt1” value [3] of the same molecule?
**A.** blocked

**Q.** And the “NDRG1 phosphorylation at Thr346” value [4]?
**A.** significantly suppressed

**Q.** What about the “effect on endosomal localization of GFP–2×FYVEHrs” value ([5]; 0.5 μM GDC-0941 alone or with 1 μM VPS34-IN1, up to 60 min, live imaging) of the same molecule?
**A.** had no effect

**Q.** What about the “effect on SGK3 activity and phosphorylation at 1 min” value (SGK3; 0.5 μM GDC-0941, 1 min time point) of the same molecule?
**A.** little effect

**Q.** What about the “time to near maximal inhibition of SGK3 activity” value (SGK3; 0.5 μM GDC-0941, time course) of the same molecule?
**A.** 2 min

**Q.** What about the “inhibition of Vps34” value (Vps34) of the same molecule?
**A.** do not inhibit

**Q.** And the “effect on SGK3 localization on endosomes” value ([6]; 0.5 μM GDC-0941 alone or with 1 μM VPS34-IN1, time-lapse)?
**A.** did not change significantly

**Q.** For `CNc1nc(-c2ccc3c(N)n[nH]c3c2)cc(N2C[C@@H](C(=O)NC3CCCCC3)CC[C@H]2C)n1` [GSK2334470, reference compound], which “SGK3 T-loop and hydrophobic motif phosphorylation” value [7] is on record?
**A.** near basal levels

**Q.** What about the “SGK3 activity after PDK1 inhibitor” value (SGK3; 1 μM, 1 h, U2OS) of the same molecule?
**A.** near basal levels

**Q.** Which “Akt phosphorylation at Ser473 and Thr308” value [2] does the source give for `CC(C)(O)CNc1ncc(-c2ccnc(Nc3ccnc(Cl)c3)n2)c(CC2CC2)n1` [VPS34-IN1, 1-[{2-[(2-chloropyridin-4yl)amino]-4′-(cyclopropylmethyl)-[4,5′-bipyrimidin]-2′-yl}amino]-2-methyl-propan-2-ol] here?
**A.** had no effect

**Q.** And the “phosphorylation … (Thr246)” value [2]?
**A.** had no effect

**Q.** And the “effect on IGF1-induced plasma membrane recruitment of GFP–PHAkt1” value [3]?
**A.** had no impact

**Q.** What about the “NDRG1 phosphorylation at Thr346” value [4] of the same molecule?
**A.** only affected moderately

**Q.** And the “inhibition of protein kinases, Dundee panel” value [8]?
**A.** did not significantly inhibit

**Q.** And the “inhibition of lipid kinases, Dundee panel” value [9]?
**A.** did not significantly inhibit

**Q.** What about the “effect on GFP–2×FYVEHrs localization” value ([10]; 0.01 μM) of the same molecule?
**A.** weak effect

**Q.** What about the “loss of endosomal localization of GFP–2×FYVEHrs” value ([10]; 0.1 μM) of the same molecule?
**A.** ~ 50%

**Q.** And the “loss of endosomal localization of GFP–2×FYVEHrs” value ([10]; 1.0 μM)?
**A.** ~ 80%

**Q.** What about the “time to near maximal dispersal of endosomal GFP–2×FYVEHrs” value ([5]; 1 μM, live imaging, U2OS) of the same molecule?
**A.** ≤ 2 min

**Q.** What about the “time to significant dispersal of endosomal GFP–2×FYVEHrs” value ([5]; 1 μM, live imaging, U2OS) of the same molecule?
**A.** ≤ 1 min

**Q.** And the “time until dispersal of endosome-localized GFP–2×FYVEHrs is essentially complete” value ([5]; live cell imaging, U2OS)?
**A.** 60 to 120 s

**Q.** What about the “SGK3 T-loop and hydrophobic motif phosphorylation” value [7] of the same molecule?
**A.** commensurate decrease

**Q.** And the “loss of SGK3 phosphorylation” value ([7]; within 1 min)?
**A.** 50–60%

**Q.** What about the “reduction in SGK3 activity” value (SGK3; 0.1 μM VPS34-IN1, 1 h, U2OS) of the same molecule?
**A.** ~ 40%

**Q.** And the “reduction in SGK3 activity” value (SGK3; 1 μM VPS34-IN1, 1 h, U2OS)?
**A.** ~ 60%

**Q.** And the “time to 50% reduction of SGK3 activity” value (SGK3; 1 μM VPS34-IN1, time course)?
**A.** ≤ 15 s

**Q.** What about the “time to maximal suppression of SGK3 activity” value (SGK3; 1 μM VPS34-IN1, time course) of the same molecule?
**A.** ≤ 1 min

**Q.** What about the “decrease in SGK3 activity on VPS34-IN1 treatment” value (SGK3; U2OS, concentration not given) of the same molecule?
**A.** 50–60%

**Q.** What about the “time to nearly maximal reduction in SGK3 activity and phosphorylation” value (SGK3; VPS34-IN1, as stated in Discussion) of the same molecule?
**A.** ≤ 30 s

**Q.** What about the “inhibition of SGK2 activity” value (SGK2) of the same molecule?
**A.** did not inhibit

**Q.** And the “inhibition of protein kinases, ProQinase panel” value [11]?
**A.** did not significantly inhibit

**Q.** What about the “time to dispersal of SGK3 from the endosomes” value ([6]; 1 μM, time-lapse, U2OS) of the same molecule?
**A.** ≤ 1 min

**Q.** And the “time until dispersal of endosome-localized GFP–SGK3 is essentially complete” value ([6]; live cell imaging, U2OS)?
**A.** 60 to 120 s
